Data on 16 compounds can be found in article PMC6844382, “Design, synthesis and evaluation of quinolinone derivatives containing dithiocarbamate moiety as multifunctional AChE inhibitors for the treatment of Alzheimer’s disease” (Journal of Enzyme Inhibition and Medicinal Chemistry, 2019).

The conditions of series [1]: from PAMPA-BBB Pe. (PAMPA measures passive passage across an artificial lipid membrane.)
Description: Afterwards, the acceptor filter plate was carefully placed on the donor plate to make the coated membrane touch both donor solution and acceptor buffer. […] Pe was calculated by the following expression: Pe = {−VdVa/[(Vd + Va)At]}ln (1-drugacceptor/drugequilibrium), where Vd is the volume of donor well, Va is volume in acceptor well, A is the filter area, t is the permeation time, drugacceptor is the absorbance obtained in the acceptor well and drugequilibrium is the theoretical equilibrium absorbance. Each compound was analysed at five wavelengths in four wells at least three independent runs, and the results were expressed as mean ± SD.
The next series deals with hAChE (Homo sapiens, UniProt P22303). The series can be described thus: In vitro inhibition of hAChE (Ellman method). The class given is biochemical. Further details: Acetylcholinesterase (AChE, from electric eel and human erythrocytes); purchased Sigma-Aldrich (St. Louis, MO, USA); host or cells: human erythrocytes. (In general: Ellman's reagent forms a yellow product with free thiols.)

In another series the target is T1, eqBuChE (Equus caballus, UniProt P81908).
T1 construct: eqBuChE (from equine serum); purchased Sigma-Aldrich (St. Louis, MO, USA); host or cells: equine serum
The series can be described thus: In vitro inhibition of eqBuChE (Ellman method). The note with it: for inhibition at 10 µM: read-out: eqBuChE Inhibition (%). In kind it is biochemical, equine.

Series [2] deals with T2, self-induced Aβ1-42 aggregation (Homo sapiens, UniProt P05067).
T2 construct: Aβ1-42 was obtained from Royobiotech Co., Ltd (Shanghai, China); purchased Royobiotech Co., Ltd (Shanghai, China)
The series can be described thus: Inhibition of self-induced Aβ1-42 aggregation (ThT assay). In kind it is biochemical. The conditions noted are these: read-out: Inhibition of Aβ1–42 aggregation (%) Self-induced. The procedure:
The inhibitory activities of compounds 4c-f and 9a-b on self-induced Aβ1-42 aggregation were also measured by the ThT assay. HFIP and ThT were purchased from TCI (Shanghai) Development. Aβ1-42 was obtained from Royobiotech Co., Ltd (Shanghai, China). The monomeric Aβ1-42 samples were prepared by HFIP and diluted with a 50 mM phosphate buffer (pH 7.4) to give a 25 μM solution. The test compound was dissolved in DMSO (250 μM) for storage and needed not to be diluted prior to use. […]. Then, 200 μL of 5 μM ThT in 50 mM glycine-NaOH buffer (pH 8.0) was added, and the percent inhibition was calculated by the method same as that of AChE-induced Aβ1–42 experiment.

In series [3] the target is T3, AChE-induced Aβ1-42 aggregation (Electrophorus electricus, UniProt O42275).
T3 construct: eeAChE (from electric eel); purchased eeAChE: Sigma-Aldrich (St. Louis, MO, USA); Aβ1-42: Royobiotech Co., Ltd (Shanghai, China)
The series can be described thus: Inhibition of AChE-induced Aβ1-42 aggregation (ThT assay). The class given is biochemical. The conditions noted are these: inhibitor 100 μM; thioflavin-T fluorescence.
Description: 1, 1, 1, 3, 3, 3-hexafluoro-2-propanol (HFIP) and Thioflavin T (ThT) were obtained from TCI (Shanghai) Development. β-Amyloid1-42 (Aβ1-42), supplied as trifluoroacetate salt, and eeAChE were purchased from Royobiotech Co., Ltd (Shanghai, China) and Sigma-Aldrich (St. Louis, MO, USA), respectively. For co-incubation experiments, aliquots of Aβ1-42 peptide and AChE in presence or absence of the test compounds were incubated for 48 h at 37 °C. […] The percent inhibition of the AChE-induced Aβ aggregation due to the presence of inhibitor was calculated by the following formula: 100 – (IFi/IFo*100), where IFi and IFo are the fluorescence intensities obtained for Aβ1-42 aggregation in the presence and in the absence of inhibitor, respectively. Each assay was run in triplicate and each reaction was repeated at least three independent times.

The target in another series is T4, eeAChE (Electrophorus electricus, UniProt O42275).
T4 construct: eeAChE (from electric eel); purchased Sigma-Aldrich (St. Louis, MO, USA); host or cells: electric eel
Description: In vitro inhibition of eeAChE (Ellman method). The class given is biochemical, electric eel. The note with it: for inhibition at 10 µM: read-out: eeAChE Inhibition (%), inhibitor at 10 μM.

The next series can be described thus: in vitro. The conditions noted are these: PAMPA.
The mark [4] stands for this setting: means ± SD of three experiments.

One may read the IC50 as the concentration needed to halve the response being measured. As a reminder, the inhibition is the drop in the measured response relative to a control, in per cent. What is called Papp is the rate of passage across a membrane or cell layer, normalised by area and donor concentration. Low readings indicate slow passage, high ones fast passage.

Read-outs that look alike come from different tables or passages of the source.

T1 sequence (P81908 whole entry): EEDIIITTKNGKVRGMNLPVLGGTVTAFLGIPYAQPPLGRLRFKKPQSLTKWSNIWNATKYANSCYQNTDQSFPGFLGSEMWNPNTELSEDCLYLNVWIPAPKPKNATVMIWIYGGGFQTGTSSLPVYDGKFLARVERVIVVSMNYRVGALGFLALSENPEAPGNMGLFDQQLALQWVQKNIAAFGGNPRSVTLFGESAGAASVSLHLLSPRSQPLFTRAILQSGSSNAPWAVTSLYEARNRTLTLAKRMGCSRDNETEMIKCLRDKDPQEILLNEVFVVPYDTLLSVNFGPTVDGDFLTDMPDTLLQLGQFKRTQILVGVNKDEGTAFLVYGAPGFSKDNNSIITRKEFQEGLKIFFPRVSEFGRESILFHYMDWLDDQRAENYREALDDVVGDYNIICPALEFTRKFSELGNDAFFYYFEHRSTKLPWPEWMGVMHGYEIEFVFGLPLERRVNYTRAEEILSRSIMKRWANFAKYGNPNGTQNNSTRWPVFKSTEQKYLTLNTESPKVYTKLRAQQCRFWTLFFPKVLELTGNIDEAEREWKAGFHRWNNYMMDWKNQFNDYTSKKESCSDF
hAChE, sequence (P22303 32-617 isoform P22303-2 limits assumed): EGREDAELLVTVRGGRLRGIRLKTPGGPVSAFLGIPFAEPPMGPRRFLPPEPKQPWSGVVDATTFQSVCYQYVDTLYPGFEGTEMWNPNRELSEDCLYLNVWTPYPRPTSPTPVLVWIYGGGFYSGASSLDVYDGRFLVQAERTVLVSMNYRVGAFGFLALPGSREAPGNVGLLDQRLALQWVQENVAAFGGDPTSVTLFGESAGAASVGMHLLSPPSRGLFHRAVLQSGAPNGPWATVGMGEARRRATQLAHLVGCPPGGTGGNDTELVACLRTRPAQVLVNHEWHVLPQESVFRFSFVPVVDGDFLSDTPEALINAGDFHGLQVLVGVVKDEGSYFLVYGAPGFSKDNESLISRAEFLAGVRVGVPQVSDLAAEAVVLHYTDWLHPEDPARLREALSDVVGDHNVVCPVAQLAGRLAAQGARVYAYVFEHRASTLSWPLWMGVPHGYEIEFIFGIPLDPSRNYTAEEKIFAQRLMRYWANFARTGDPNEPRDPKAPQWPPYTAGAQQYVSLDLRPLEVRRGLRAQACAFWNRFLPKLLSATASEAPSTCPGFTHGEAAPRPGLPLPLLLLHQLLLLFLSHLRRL
T3 sequence (O42275 24-633): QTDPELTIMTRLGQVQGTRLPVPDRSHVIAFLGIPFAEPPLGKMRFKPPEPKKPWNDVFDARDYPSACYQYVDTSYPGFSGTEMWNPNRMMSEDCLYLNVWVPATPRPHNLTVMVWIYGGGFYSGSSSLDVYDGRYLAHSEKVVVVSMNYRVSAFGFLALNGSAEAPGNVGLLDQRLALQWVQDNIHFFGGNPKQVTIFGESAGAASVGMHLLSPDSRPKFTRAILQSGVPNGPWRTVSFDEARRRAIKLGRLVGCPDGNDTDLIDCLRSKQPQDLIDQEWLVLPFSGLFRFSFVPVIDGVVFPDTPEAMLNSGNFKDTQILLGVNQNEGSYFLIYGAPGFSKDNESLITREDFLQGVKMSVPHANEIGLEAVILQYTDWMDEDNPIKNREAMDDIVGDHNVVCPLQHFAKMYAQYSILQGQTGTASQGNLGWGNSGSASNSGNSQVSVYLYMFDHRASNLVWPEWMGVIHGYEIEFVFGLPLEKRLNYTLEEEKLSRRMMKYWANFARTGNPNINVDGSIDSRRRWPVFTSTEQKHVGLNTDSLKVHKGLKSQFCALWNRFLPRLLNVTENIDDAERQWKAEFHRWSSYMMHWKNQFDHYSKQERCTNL
T4 sequence (O42275 24-633): as above
T2 sequence (P05067 672-713): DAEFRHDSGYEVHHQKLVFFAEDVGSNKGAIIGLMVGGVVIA
Description for eeAChE: (§1) The in vitro inhibitory activities of test compounds against AChE and BuChE were determined by the spectrophotometric method of Ellman[25]. […] For each assay, 160 μL of 1.5 mM DTNB, 50 μL of AChE (0.22 U/mL for eeAChE; 0.05 U/mL for hAChE) or eqBuChE (0.12 U/mL) were incubated with 10 μL of different concentrations of test compounds at 37 °C for 6 min.
Description for eqBuChE: as §1
Description for hAChE: as §1

Regarding `O=c1ccc2ccc(OCCCCCCSC(=S)N3CCCCC3)cc2[nH]1` [4e, 6-((2-oxo-1,2-dihydroquinolin-7-yl)oxy)hexyl piperidine-1-carbodithioate], the “Prediction of penetration into CNS” value in series [1] was “CNS+ (CNS + is predicted as high BBB permeation with Pe (×10^6 cm/s) > 3.33)”. Also, the IC50 against hAChE turned out to be 380 ± 20 nM; on eeAChE it was 350 ± 20 nM. The inhibition at 10 µM on eqBuChE was determined as 17.5 ± 2.17%. Also, in series [2], the inhibition at 25 µM was 25.8 ± 1.43%. In addition, the inhibition at 100 µM in series [3] was determined as 20.3 ± 2.21%. Also, the Papp at 18 h, 25 μg/mL in “in vitro” worked out at 9.85 ± 0.98 ×10⁻⁶ cm/s.

With `O=c1ccc2ccc(OCCSC(=S)N3CCCCC3)cc2[nH]1` [4a, 2-((2-oxo-1,2-dihydroquinolin-7-yl)oxy)ethyl piperidine-1-carbodithioate], in series [1], the “Prediction of penetration into CNS” value was “CNS+ (CNS + is predicted as high BBB permeation with Pe (×10^6 cm/s) > 3.33)”. Also, the inhibition at 10 µM at eqBuChE stood at 16.7 ± 2.36%; at eeAChE (setting [4]), 45.3 ± 0.35%. For the same compound, in “in vitro”, the Papp at 18 h, 25 μg/mL turned out to be 8.57 ± 1.23 ×10⁻⁶ cm/s.

With `CN1CCN(C(=S)SCCCCOc2ccc3ccc(=O)[nH]c3c2)CC1` [4k, 4-((2-oxo-1,2-dihydroquinolin-7-yl)oxy)butyl 4-methylpiperazine-1-car-bodithioate], the “Prediction of penetration into CNS” value in series [1] was “CNS+ (CNS + is predicted as high BBB permeation with Pe (×10^6 cm/s) > 3.33)”. Besides, the inhibition at 10 µM at eqBuChE came out at 28.6 ± 3.44%; on eeAChE (setting [4]), 23.1 ± 5.54%. This compound displayed a Papp at 18 h, 25 μg/mL in “in vitro” of 4.54 ± 0.84 ×10⁻⁶ cm/s.

On to `O=c1ccc2ccc(OCCCCSC(=S)N3CCC(N4CCCCC4)CC3)cc2[nH]1` [4h, 4-((2-oxo-1,2-dihydroquinolin-7-yl)oxy)butyl [1,4′-bipiperidine]-1′-carbodithio-ate], for which, in series [1], the “Prediction of penetration into CNS” value is on record as “CNS+ (CNS + is predicted as high BBB permeation with Pe (×10^6 cm/s) > 3.33)”. In addition, the half-maximal inhibitory concentration (IC50) at eqBuChE came out at 2000 ± 230 nM; on eeAChE, 3800 ± 350 nM. The Papp at 18 h, 25 μg/mL in the series “in vitro” was determined as 6.42 ± 1.02 ×10⁻⁶ cm/s.

For the compound `O=c1ccc2ccc(OCCCCSC(=S)N3CCC(O)CC3)cc2[nH]1` [4i, 4-((2-oxo-1,2-dihydroquinolin-7-yl)oxy)butyl 4-hydroxypiperidine-1-carbodithio-ate], in series [1], the “Prediction of penetration into CNS” value is on record as “CNS± (CNS ± is uncertain for BBB permeation with 1.51 < Pe (×10^6 cm/s) < 3.33)”. Moreover, the inhibition at 10 µM on eqBuChE was 15.8 ± 2.45%; at eeAChE (setting [4]), 20.2 ± 3.27%. In the series “in vitro”, the Papp at 18 h, 25 μg/mL was found to be 2.83 ± 0.65 ×10⁻⁶ cm/s.

Take `Cc1c(C)c2ccc(OCCCCSC(=S)N3CCCCC3)cc2[nH]c1=O` [9b, 4-((3,4-dimethyl-2-oxo-1,2-dihydroquinolin-7-yl)oxy)butylpiperidine-1-carbodithioate]: the “Prediction of penetration into CNS” value in series [1] was “CNS+ (CNS + is predicted as high BBB permeation with Pe (×10^6 cm/s) > 3.33)”. The IC50 on hAChE turned out to be 390 ± 10 nM; at eeAChE it was 340 ± 10 nM. Moreover, on eqBuChE, the inhibition at 10 µM worked out at 21.2 ± 1.6%. The inhibition at 25 µM in series [2] stood at 35.3 ± 2.17%. Further, 100 µM produced 24.4 ± 3.03% inhibition in series [3]. This compound came in with a Papp at 18 h, 25 μg/mL in the series “in vitro” of 8.67 ± 1.76 ×10⁻⁶ cm/s.

With `COc1cc(/C=C/C(=O)CC(=O)/C=C/c2ccc(O)c(OC)c2)ccc1O` [Curcumin, reference compound], the inhibition at 25 µM in series [2] (inhibitor 25 μM, thioflavin-T fluorescence) came out at 37.3 ± 2.76%.

As to `O=c1ccc2ccc(OCCCCCSC(=S)N3CCCCC3)cc2[nH]1` [4d, 5-((2-oxo-1,2-dihydroquinolin-7-yl)oxy)pentyl piperidine-1-carbodithioate], in series [1], the “Prediction of penetration into CNS” value was “CNS+ (CNS + is predicted as high BBB permeation with Pe (×10^6 cm/s) > 3.33)”. Moreover, the IC50 came out at 570 ± 10 nM at hAChE and 240 ± 20 nM against eeAChE. Besides, at eqBuChE, the inhibition at 10 µM came to 20.9 ± 2.61%. The inhibition at 25 µM in series [2] came to 26 ± 3.01%. Also, at 100 µM the inhibition in series [3] was 24.1 ± 3.04%. Moreover, the Papp at 18 h, 25 μg/mL in “in vitro” turned out to be 8.82 ± 1.34 ×10⁻⁶ cm/s.

For the compound `CC1CCN(C(=S)SCCCCOc2ccc3ccc(=O)[nH]c3c2)CC1` [4f, 4-((2-oxo-1,2-dihydroquinolin-7-yl)oxy)butyl 4-methylpiperidine-1-carbodithio-ate], the “Prediction of penetration into CNS” value in series [1] is “CNS+ (CNS + is predicted as high BBB permeation with Pe (×10^6 cm/s) > 3.33)”. For the same compound, the IC50 on hAChE was 1210 ± 330 nM; on eeAChE it was 690 ± 220 nM. Also, at eqBuChE, the inhibition at 10 µM was 37.2 ± 1.22%. Besides, the inhibition at 25 µM in series [2] was found to be 20.4 ± 3.22%. In addition, the inhibition at 100 µM in series [3] amounted to 12.1 ± 3.18%. The “fold less inhibitory activity than compound 4c on AChE” value at eeAChE (ratio of eeAChE IC50 values) is reported as 3 fold. The same compound returned a Papp at 18 h, 25 μg/mL in “in vitro” of 6.3 ± 0.86 ×10⁻⁶ cm/s.

For `CC(C)C1CCN(C(=S)SCCCCOc2ccc3ccc(=O)[nH]c3c2)CC1` [4g, 4-((2-oxo-1,2-dihydroquinolin-7-yl)oxy)butyl 4-isopropylpiperidine-1-carbodithi-oate], in series [1], the “Prediction of penetration into CNS” value is given as “CNS+ (CNS + is predicted as high BBB permeation with Pe (×10^6 cm/s) > 3.33)”. The inhibition at 10 µM at eqBuChE came out at 31.4 ± 3.15%. The compound further displayed a half-maximal inhibitory concentration (IC50) against eeAChE of 9610 ± 1120 nM. Moreover, the Papp at 18 h, 25 μg/mL in “in vitro” was 7.14 ± 1.97 ×10⁻⁶ cm/s.

For `Cc1cc(=O)[nH]c2cc(OCCCCSC(=S)N3CCCCC3)ccc12` [9a, 4-((4-methyl-2-oxo-1,2-dihydroquinolin-7-yl)oxy)butylpiperidine-1-carbodithioate], the “Prediction of penetration into CNS” value in series [1] is listed as “CNS+ (CNS + is predicted as high BBB permeation with Pe (×10^6 cm/s) > 3.33)”. Also, the IC50 was 760 ± 100 nM at hAChE and 300 ± 120 nM on eeAChE. Besides, the inhibition at 10 µM at eqBuChE came to 18.3 ± 3.15%. Besides, the inhibition at 25 µM in series [2] was 33.4 ± 4.85%. In addition, the inhibition at 100 µM in series [3] was found to be 14.2 ± 2.85%. Also, the Papp at 18 h, 25 μg/mL in the series “in vitro” turned out to be 8.79 ± 2.1 ×10⁻⁶ cm/s.

With `O=c1ccc2ccc(OCCCCSC(=S)N3CCC(CO)CC3)cc2[nH]1` [4j, 4-((2-oxo-1,2-dihydroquinolin-7-yl)oxy)butyl 4-(hydroxymethyl)piperidine-1-ca-rbodithioate], the “Prediction of penetration into CNS” value in series [1] is recorded as “CNS± (CNS ± is uncertain for BBB permeation with 1.51 < Pe (×10^6 cm/s) < 3.33)”. The inhibition at 10 µM on eqBuChE stood at 23.9 ± 2.03%; on eeAChE (setting [4]), 14.5 ± 2.44%. Further, the Papp at 18 h, 25 μg/mL in the series “in vitro” was 3.25 ± 0.82 ×10⁻⁶ cm/s.

`O=c1ccc2ccc(OCCCSC(=S)N3CCCCC3)cc2[nH]1` [4b, 3-((2-oxo-1,2-dihydroquinolin-7-yl)oxy)propyl piperidine-1-carbodithioate]: the “Prediction of penetration into CNS” value in series [1] was “CNS+ (CNS + is predicted as high BBB permeation with Pe (×10^6 cm/s) > 3.33)”. In addition, the inhibition at 10 µM on eqBuChE was 16.6 ± 4.01%. For the same compound, the IC50 on eeAChE was 3960 ± 710 nM. Moreover, the apparent permeability (Papp) at 18 h, 25 μg/mL in “in vitro” worked out at 8.78 ± 1.11 ×10⁻⁶ cm/s.

In the case of `O=c1ccc2ccc(OCCCCSC(=S)N3CCOCC3)cc2[nH]1` [4l, 4-((2-oxo-1,2-dihydroquinolin-7-yl)oxy)butyl morpholine-4-carbodithioate], in series [1], the “Prediction of penetration into CNS” value was “CNS+ (CNS + is predicted as high BBB permeation with Pe (×10^6 cm/s) > 3.33)”. Besides, the inhibition at 10 µM at eqBuChE was 30.5 ± 4.11%; on eeAChE (setting [4]) it was 12.3 ± 1.76%. The compound also showed a Papp at 18 h, 25 μg/mL in the series “in vitro” of 7.35 ± 1.05 ×10⁻⁶ cm/s.

In the case of `O=c1ccc2ccc(OCCCCSC(=S)N3CCCC3)cc2[nH]1` [4m, 4-((2-oxo-1,2-dihydroquinolin-7-yl)oxy)butyl pyrrolidine-1-carbodithioate], in series [1], the “Prediction of penetration into CNS” value is given as “CNS+ (CNS + is predicted as high BBB permeation with Pe (×10^6 cm/s) > 3.33)”. Moreover, the inhibition at 10 µM on eqBuChE is 7.63 ± 0.92%; at eeAChE (setting [4]), less than 50%. In addition, the “eeAChE Inhibition (%)” value at eeAChE (inhibitor at 10 μM, means ± SD of three experiments, 10 µM) is 31.43 ± 1.65%. The compound also returned a Papp at 18 h, 25 μg/mL in the series “in vitro” of 10 ± 2.63 ×10⁻⁶ cm/s.

Consider `CC(=O)[C@H]1CC[C@H]2[C@@H]3CCC4=CC(=O)CC[C@]4(C)[C@H]3CC[C@]12C` [Progesterone, reference compound], for which, in the series “in vitro”, the Papp at 18 h, 25 μg/mL came out at 10.4 ± 1.9 ×10⁻⁶ cm/s.
